Reference: PMC10017709, “Structural basis of selective cannabinoid CB2 receptor activation” (Nature Communications, 2023)

Legend:
[1] = tested on: CB1R QuadrupleTM1,7; assay: [35S]GTPγS assay, CB1R quadruple mutant; type: biochemical, human
[2] = biological target: CB1R I267ECL2L (Homo sapiens, UniProt P21554, I267L); assay: [35S]GTPγS assay, CB1R I267L mutant; type: biochemical
[3] = biological target: CB2R-S285^7.39A (Homo sapiens, UniProt P34972, S285A); assay: [35S]GTPγS assay, CB2R S285A mutant; type: biochemical
[4] = biological target: CB2R-F117^3.36A (Homo sapiens, UniProt P34972, F117A); assay: [35S]GTPγS assay, CB2R F117A mutant; type: biochemical
[5] = biological target: CB2R-V261^6.51L (Homo sapiens, UniProt P34972, V261L); assay: [35S]GTPγS assay, CB2R V261L mutant; type: biochemical
[6] = biological target: CB2R-Quadruple^TM1,7 (Homo sapiens, UniProt P34972, C40S/K279T/K33Q/V36I); assay: [35S]GTPγS assay, CB2R quadruple mutant; type: biochemical
Experimental: In short, transient HEK293T membrane homogenates (10 µg/well) were diluted in assay buffer (50 mM Tris-HCl (pH 7.4), 5 mM MgCl2, 150 mM NaCl, 1 mM EDTA, 0.05% BSA (w/v) and 1 mM DTT, freshly prepared every day) and were pretreated with 10 µg saponin and 1 µM GDP. For endocannabinoid samples, the membranes were additionally pretreated for 30 min with 50 µM PMSF before agonist addition. […] Basal receptor activity was determined in the presence of vehicle only (0.2% DMSO/acetonitrile). […] Filtration was performed, and filter-bound radioactivity was determined as described under [^3H]RO6957022 Competition Association Assays except for using ice-cold 50 mM Tris-HCl (pH 7.4), 5 mM MgCl2 buffer.

[7] = biological target: CB2R WT (Homo sapiens, UniProt P34972); assay: [35S]GTPγS G protein activation assay, CB2R WT; type: biochemical
[8] = biological target: CB2R-H95^2.65A (Homo sapiens, UniProt P34972, H95A); assay: [35S]GTPγS assay, CB2R H95A mutant; type: biochemical
[9] = biological target: CB2R-I110^3.29A (Homo sapiens, UniProt P34972, I110A); assay: [35S]GTPγS assay, CB2R I110A mutant; type: biochemical
[10] = biological target: T1, CB1R D266ECL2E (Homo sapiens, UniProt P21554, D266E); assay: [35S]GTPγS assay, CB1R D266E mutant; type: biochemical
T1 construct: The WT CB1R and CB2R genes were subcloned into vector pcDNA3.1; HA signal peptide (N); expressed in transfected cells; host or cells: HEK293T (transient, membrane homogenates)

[11] = biological target: CB2R-L185^ECL2H (Homo sapiens, UniProt P34972, L185H); assay: [35S]GTPγS assay, CB2R L185H mutant; type: biochemical
[12] = biological target: CB2R-E181^ECL2D (Homo sapiens, UniProt P34972, E181D); assay: [35S]GTPγS assay, CB2R E181D mutant; type: biochemical
[13] = biological target: hCB1R WT (Homo sapiens, UniProt P21554); assay: [35S]GTPγS G protein activation assay, CB1R WT; type: biochemical
[14] = biological target: CB2R-I110^3.29L (Homo sapiens, UniProt P34972, I110L); assay: [35S]GTPγS assay, CB2R I110L mutant; type: biochemical
[15] = biological target: CB2R-L182^ECL2I (Homo sapiens, UniProt P34972, L182I); assay: [35S]GTPγS assay, CB2R L182I mutant; type: biochemical
[16] = biological target: CB1R-H270^ECL2L (Homo sapiens, UniProt P21554, H270L); assay: [35S]GTPγS assay, CB1R H270L mutant; type: biochemical
[17] = tested on: cisplatin-induced nephropathy; assay: Cisplatin-induced nephropathy in wild type mice; type: in vivo, C57BL/6J mice
Experimental: (§1) Ten to twelve-week-old male/female C57BL/6J mice were obtained from The Jackson Laboratory (Bar Harbor, ME, USA). CB2R knockout mice (CB2R^−/−) and their wild-type littermates (CB2R^+/+) were developed as described previously and had been backcrossed to a C57BL/6J background. All animals were kept in a temperature-controlled environment (20–22 °C) with a 12 h light–dark cycle and were always allowed free access to food and water. All animal experiments reported in this manuscript complied with the National Institutes of Health “Guide for the Care and Use of Laboratory Animals” (NIH publication 86–23 revised 1985) and were approved by the Institutional Animal Care and Use Committee of the National Institute on Alcohol Abuse and Alcoholism (Bethesda, MD).
(§2) The well-established model of cisplatin-induced nephropathy was used[63]. Mice (CB2R^−/− and CB2R^+/+) were sacrificed 72 h after a single injection of cisplatin (cis-diamine platinum (II) dichloride (Sigma#P4394) 25 mg/kg i.p.; freshly dissolved in physiological saline) by cervical dislocation under deep anesthesia with 5% isoflurane, for collection of blood and tissue samples. LEI-102 was given i.p. or by oral gavage (p.o.) at 0.3, 3.0, and 10 mg/kg every day, starting 1.5 h before the cisplatin exposure. The drug was dissolved in a vehicle of DMSO:Tween 80:saline, 1:1:18. After administration of LEI‐102, mice were killed by cervical dislocation under deep anesthesia with 5% isoflurane, for collection of blood and tissue samples at the time described in the figure. The tetrad assay in mice has previously been described in detail.
(§3) Markers of kidney dysfunction (BUN and CREA), histopathology (PAS staining), immunostaining or ELISA for 3-nitrotyrosine (3-NT; Cell Biolabs #STA-305) and 4-hydroxynonenal (4-HNE; Cell Biolabs#STA-838), and real-time PCR (Primers from Qiagen, SYBER Green Vita Scientific#MEIF01301, High-Capacity cDNA Reverse Transcription Kit, Thermo Fisher Scientific#4368813) for inflammatory cytokines were performed as previously described. Tubular damage scores were determined based on the percentage of tubules showing epithelial necrosis where 0= normal; 1, <10%; 2, 10–25%; 3, 26–75%; 4, >75%. Tubular necrosis was defined as the loss of the proximal tubular brush border, blebbing of apical membranes, tubular epithelial cell detachment from the basement membrane, or intraluminal aggregation of cells and proteins. The morphometric examination was performed in a blinded manner. Ten fields were scored from each mouse kidneys at 200× magnification, and average scores were determined for each mouse. For final quantification graph, average tubular damage scores of six mice/group were plotted.

[18] = tested on: cisplatin-induced nephropathy, CB2R knockout mice (CB2R−/−); assay: Cisplatin-induced nephropathy in CB2R knockout mice; type: in vivo; details: Cisplatin KO; mean, n = 6
Experimental: as §1, §2, §3

[19] = Cisplatin WT (Fig5F), mean, n = 6
[20] = cisplatin 25 mg/kg i.p. alone, 72 h, mean, n = 6 (Fig5A)
[21] = kidney, cisplatin alone, mean, n = 6, vehicle mean 1.0
[22] = kidney, cisplatin alone, mean, n = 6, vehicle mean 1.00

Chain of CB2R-H95^2.65A (P34972 whole entry H95A): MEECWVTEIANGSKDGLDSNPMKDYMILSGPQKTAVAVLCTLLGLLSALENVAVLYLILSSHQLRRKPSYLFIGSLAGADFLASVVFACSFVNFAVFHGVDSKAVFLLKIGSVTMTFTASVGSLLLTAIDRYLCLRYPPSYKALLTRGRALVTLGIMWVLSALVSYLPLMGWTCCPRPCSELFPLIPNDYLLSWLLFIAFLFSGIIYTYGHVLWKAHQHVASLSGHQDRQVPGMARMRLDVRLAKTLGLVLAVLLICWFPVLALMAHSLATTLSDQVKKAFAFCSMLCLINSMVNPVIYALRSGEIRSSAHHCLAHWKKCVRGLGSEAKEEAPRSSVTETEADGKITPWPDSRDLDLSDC
Chain of CB2R WT (P34972 whole entry): as the sequence (P34972 whole entry H95A) above, with A95H counted along it
Chain of CB2R-S285^7.39A (P34972 whole entry S285A): as the sequence (P34972 whole entry H95A) above, with A95H, S285A counted along it
Chain of CB2R-Quadruple^TM1,7 (P34972 whole entry K33Q/V36I/C40S/K279T): as the sequence (P34972 whole entry H95A) above, with K33Q, V36I, C40S, A95H, K279T counted along it
Chain of CB2R-F117^3.36A (P34972 whole entry F117A): as the sequence (P34972 whole entry H95A) above, with A95H, F117A counted along it
Chain of CB1R I267ECL2L (P21554 whole entry I267L): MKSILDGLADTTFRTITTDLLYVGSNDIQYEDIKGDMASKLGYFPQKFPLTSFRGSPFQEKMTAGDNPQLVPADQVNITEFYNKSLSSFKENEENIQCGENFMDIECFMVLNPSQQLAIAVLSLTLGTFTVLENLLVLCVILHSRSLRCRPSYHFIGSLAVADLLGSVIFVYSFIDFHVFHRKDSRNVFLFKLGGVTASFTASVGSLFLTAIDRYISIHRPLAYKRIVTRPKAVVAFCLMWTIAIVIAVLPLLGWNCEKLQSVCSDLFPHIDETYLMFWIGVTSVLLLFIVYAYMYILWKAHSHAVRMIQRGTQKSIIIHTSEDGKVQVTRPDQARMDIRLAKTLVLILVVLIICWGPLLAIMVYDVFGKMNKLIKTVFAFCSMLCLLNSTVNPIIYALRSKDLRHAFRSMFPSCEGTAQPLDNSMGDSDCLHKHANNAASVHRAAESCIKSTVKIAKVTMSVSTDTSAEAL
T1 sequence (P21554 whole entry D266E): as the sequence (P21554 whole entry I267L) above, with D266E, L267I counted along it
Chain of CB1R-H270^ECL2L (P21554 whole entry H270L): as the sequence (P21554 whole entry I267L) above, with L267I, H270L counted along it
Chain of CB2R-V261^6.51L (P34972 whole entry V261L): as the sequence (P34972 whole entry H95A) above, with A95H, V261L counted along it
Chain of CB2R-L185^ECL2H (P34972 whole entry L185H): as the sequence (P34972 whole entry H95A) above, with A95H, L185H counted along it
Chain of CB2R-I110^3.29L (P34972 whole entry I110L): as the sequence (P34972 whole entry H95A) above, with A95H, I110L counted along it
Chain of hCB1R WT (P21554 whole entry): as the sequence (P21554 whole entry I267L) above, with L267I counted along it
Chain of CB2R-I110^3.29A (P34972 whole entry I110A): as the sequence (P34972 whole entry H95A) above, with A95H, I110A counted along it
Chain of CB2R-L182^ECL2I (P34972 whole entry L182I): as the sequence (P34972 whole entry H95A) above, with A95H, L182I counted along it
Chain of CB2R-E181^ECL2D (P34972 whole entry E181D): as the sequence (P34972 whole entry H95A) above, with A95H, E181D counted along it

CCCCCCC(C)(C)c1ccc([C@@H]2C[C@H](O)CC[C@H]2CCCO)c(O)c1 [CP55,940]
Agonist-mediated activation [1]: 1.8 ± 0.1 fold over its basal | Agonist-mediated activation [2]: 1.0 ± 0.0 fold over its basal | Emax [3]: 25 ± 5% | Emax [4]: -1 ± 14% | Emax [5]: 12 ± 7% | Emax [6]: 18 ± 14% | Emax [7]: 98 ± 4% | Emax (%) [7]: 99 ± 3% | Emax [8]: 68 ± 11% | drop in potency compared to WT [8]: 40 fold | Emax [9]: 30 ± 2% | Agonist-mediated activation [10]: 1.4 ± 0.1 fold over its basal | Emax [11]: 142 ± 16% | Emax [12]: 19 ± 10% | Agonist-mediated activation [13]: 1.2 ± 0.1 fold over its basal | Emax [14]: 96 ± 3% | Emax [15]: 19 ± 2% | Agonist-mediated activation [16]: 1.6 ± 0.1 fold over its basal

N.N.[Cl][Pt][Cl] [Cisplatin, cis-diamine platinum (II) dichloride]
BUN [17, 19]: 170 | CREA [17, 19]: 1.7 | Tubular damage score [17, 19]: 2.16 | BUN [17, 20]: 167.5 mg/dL | CREA [17, 20]: 1.8 mg/dL | serum creatinine and blood urea nitrogen levels ([17]; cisplatin 25 mg/kg i.p., 72 h, wild type mice vs vehicle): marked elevations | Tubular damage score ([17]; cisplatin alone, PAS staining, score 0-4, mean, n = 6 (Fig5B)): 2.4 | HNE (HNE adducts, ELISA) [17, 21]: 4.3 | NT (protein nitration, ELISA) [17, 21]: 5.7 | IL1b expression (real-time PCR) [17, 22]: 4.93 | TNFa expression (real-time PCR) [17, 22]: 3.36 | BUN [18]: 290 | CREA [18]: 3.7 | Tubular damage score [18]: 2.86
